Experimental data published in patent publication US20200158718A1, “A METHOD FOR PREDICTING TIME-TO-VIRAL CLEARANCE IN PATIENTS WITH CHRONIC HEPATITIS C VIRUS (HCV) INFECTION UNDER DIRECT ACTING ANTIVIRAL (DAA) THERAPY” (priority 2017, published 2020).
Several values for one entry are separate records, joined by “and”; a condition that tells them apart may be missing. Identical values can stand only once.

What was measured:
Assay type in all cases: in vivo, human
[1] = test system: hepatitis C virus (HCV); assay: Observational trial (training set): HCV-RNA / virological response of chronic HCV patients under DAA therapy; settings: for HCV-RNA EOT / HCV-RNA wk 4 / HCV-RNA SVR12: one line per patient (Table 3); for HCV-RNA EOT: end of treatment; for HCV-RNA wk 4: week 4 of therapy; for HCV-RNA SVR12: week 12 after end of treatment; for Response to DAA Therapy: one line per patient (Table 1, patients 1-23), SVR12 = undetectable HCV-RNA at week 12 after end of treatment, relapse = undetectable at EOT but detectable during follow-up, patients 5, 9 treated 24 weeks, patients 18, 23 treated 8 weeks
Procedure: The expression “time-to-viral clearance” indicates the period until no HCV RNA detection with currently available detection methods, e.g. as measured by PCR, particularly by quantitative real-time PCR in peripheral blood samples, e.g. in samples of at least 5 ml EDTA blood or whole blood is possible. Using a standard PCR-based test, fewer than 12 copies per milliliter blood is considered to be clinically clear of HCV (Table 3).
(§1) Peripheral blood samples were provided by patients with chronic HCV infection, who were participating in an observational trial (clinicaltrials.gov: NCT02904603) authorized by the local ethics committee. For a training trial, 23 patients (genotype 1a (n=10), 1b (n=9) and 3 (n=4)) were treated with daclatasvir plus sofosbuvir (DCV/SOF; n=15), ledipasvir plus sofosbuvir (LDV/SOF; n=4) or with ritonavir-boosted paritaprevir, ombitasvir, and dasabuvir (n=4).
(§2) A sustained virological response to DAA therapy is generally achieved in 85-99% of chronic HCV patients, depending upon viral genotype, patient-related factors and the choice of treatment regime. In the present study of 23 patients with chronic HCV infection, 22 had achieved a sustained virological response at 12 weeks post-treatment (SVR12). Clearance of virus was associated with improved liver function and reduction in systemic markers of liver inflammation. Although most patients achieved sustained virological responses by 12 weeks, there was considerable variation in time to HCV RNA negativity and normalization of biochemical parameters. Baseline mean HCV RNA titer was 6.12±0.12 log 10 IU/ml, falling to 1.2±0.14 log 10 IU/ml by 4 weeks, at which time 12/23 patients were HCV RNA <12 IU/ml. HCV establishes persistent infections during which virus-specific CD4+ and CD8+ T cells become impaired through progressive functional exhaustion or clonal deletion, and intrahepatic NK cell responses are subdued. […] In particular, this study aimed to identify a minimal set of immunological markers that accurately classified patients with chronic HCV infections as “fast responders” (i.e. HCV RNA <12 IU/ml by 4 weeks) or “slow responders” (i.e. HCV RNA >12 IU/ml at 4 weeks, irrespective of later outcome). These biomarkers were to be independent of viral genotype, baseline fibrosis score, previous HCV treatment, and other patient-related factors. Therefore, the influence of the ALT levels, of the HCV genotype, of a previous treatment for chronic HCV, and the pre-treatment fibrosis score were also analyzed.

[2] = test system: ALT, alanine aminotransferase; assay: Observational trial (training set): ALT level of chronic HCV patients under DAA therapy; settings: one line per patient (Table 3); for ALT level EOT: end of treatment; for ALT level wk 4: week 4 of therapy; for ALT level SVR12: week 12 after end of treatment
Procedure: as §1, §2

[3] = test system: hepatitis C virus (HCV); assay: Prospective set: HCV-RNA at week 4 of DAA therapy in a further 10 chronic HCV patients; settings: one line per patient (Table 5, prospective set)
Excerpt: To verify that the model accurately predicted fast and slow responses, data were collected from a further 10 chronic HCV patients prior to DAA treatment (Table 5). In this “prospective set”, 8 patients were slow responders and 2 were fast responders: all slow responders were correctly classified as such (Table 2D). The model also correctly identified 1 of 2 fast responders. […] For the purpose of prospectively and safely shortening DAA therapy, a test with high specificity is more important than one with high sensitivity.
To verify that the herein disclosed model accurately predicts fast and slow responses, data were collected from a further 10 chronic HCV patients prior to DAA treatment (cf. the Table 5 below).

Substance	HCV-RNA EOT [1]	HCV-RNA wk 4 [1]	HCV-RNA SVR12 [1]	ALT level EOT [2]	ALT level wk 4 [2]	ALT level SVR12 [2]	Response to DAA Therapy wk 4 [3]	Response to DAA Therapy [1]
daclatasvir plus sofosbuvir [SOF + DCV]	neg. (7×) and <12 IU/ml (8×)	<12 IU/ml (4×) and neg	neg.	44 U/L and 46 U/L and 24 U/L and 45 U/L and 61 U/L and 42 U/L and 30 U/L and 70 U/L and 17 U/L and 23 U/L (2×) and 47 U/L and 22 U/L and 19 U/L and 31 U/L	38 U/L and 42 U/L and 27 U/L and 51 U/L and 47 U/L and 34 U/L (2×) and 25 U/L and 62 U/L and 22 U/L and 31 U/L and 28 U/L and 29 U/L and 24 U/L and 23 U/L	31 U/L and 35 U/L and 21 U/L (3×) and 41 U/L and 37 U/L and 43 U/L and 24 U/L and 62 U/L and 17 U/L and 107 U/L and 25 U/L and 23 U/L and 42 U/L	30 IU/ml	–
ledipasvir plus sofosbuvir [SOF + LDV]	neg.	<12 IU/ml	neg.	31 U/L and 64 U/L and 23 U/L and 24 U/L	31 U/L and 74 U/L and 22 U/L and 24 U/L	27 U/L and 32 U/L and 21 U/L and 10 U/L	61 IU/ml and <12 IU/ml (2×) and 51 IU/ml and 12 IU/ml (2×) and 14 IU/ml	SVR12
ritonavir-boosted paritaprevir, ombitasvir, and dasabuvir [3D]	neg.	neg	neg.	21 U/L and 15 U/L and 23 U/L	24 U/L and 17 U/L and 19 U/L	24 U/L and 21 U/L	–	SVR12
